Experiment [1] concerns RAT RET/C634R cells. It is filed as cell-based. Conditions: low serum, last day values, 95% CI in brackets, read-out: Growth inhibition IC50 dose: RAT RET/C634R. As for the experimental part: (§1) To compare cell growth, we performed unpaired Student’s t test using the Instat software program (Graphpad Software Inc). P values were two-sided, and differences were considered statistically significant at P <.02. IC50 doses were calculated through a curve fitting analysis from last day values using the PRISM software program (Graphpad Software Inc).

Experiment [2] has as its system RAT RET/M918T cells. The experiment is described as follows: Growth curves, RAT1 cells transformed by RET/M918T. Conditions: low serum, last day values, 95% CI in brackets, read-out: Growth inhibition IC50 dose: RAT RET/M918T. In kind it is cell-based. How it is done: as §1
Experiment [3] addresses T1, KinomeScan kinase panel (Homo sapiens, UniProt P19784).
T1 construct: purchased DiscoveRx (KinomeScan)
Description: KinomeScan kinase panel, single concentration 10 µM. Particulars: CSNK2A2, 10 µM; read-out: score (%). It is filed as binding.

Experiment [4] concerns the target T2, KinomeScan kinase panel (Homo sapiens, UniProt P49760).
T2 construct: purchased DiscoveRx (KinomeScan)
Described as above. In kind it is binding. Conditions: CLK2, 10 µM; read-out: score (%).

The target in experiment [5] is T3, KinomeScan kinase panel (Homo sapiens, UniProt P50750).
T3 construct: purchased DiscoveRx (KinomeScan)
T3 sequence (P50750 whole entry): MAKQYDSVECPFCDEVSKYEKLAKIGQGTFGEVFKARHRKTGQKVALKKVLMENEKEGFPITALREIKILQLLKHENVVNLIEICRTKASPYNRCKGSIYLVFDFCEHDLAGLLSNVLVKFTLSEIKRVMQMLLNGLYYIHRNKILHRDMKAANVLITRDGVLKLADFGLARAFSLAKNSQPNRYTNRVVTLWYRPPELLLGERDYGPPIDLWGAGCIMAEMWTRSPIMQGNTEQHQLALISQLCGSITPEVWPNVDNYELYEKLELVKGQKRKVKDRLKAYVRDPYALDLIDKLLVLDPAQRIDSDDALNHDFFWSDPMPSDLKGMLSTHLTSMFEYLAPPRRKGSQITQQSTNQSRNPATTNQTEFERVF
The description is as above. Conditions: CDK9, 10 µM; read-out: score (%). It is filed as binding.

The target in experiment [6] is T4, KinomeScan kinase panel (Homo sapiens, UniProt Q05655).
T4 construct: purchased DiscoveRx (KinomeScan)
T4 sequence (Q05655 whole entry): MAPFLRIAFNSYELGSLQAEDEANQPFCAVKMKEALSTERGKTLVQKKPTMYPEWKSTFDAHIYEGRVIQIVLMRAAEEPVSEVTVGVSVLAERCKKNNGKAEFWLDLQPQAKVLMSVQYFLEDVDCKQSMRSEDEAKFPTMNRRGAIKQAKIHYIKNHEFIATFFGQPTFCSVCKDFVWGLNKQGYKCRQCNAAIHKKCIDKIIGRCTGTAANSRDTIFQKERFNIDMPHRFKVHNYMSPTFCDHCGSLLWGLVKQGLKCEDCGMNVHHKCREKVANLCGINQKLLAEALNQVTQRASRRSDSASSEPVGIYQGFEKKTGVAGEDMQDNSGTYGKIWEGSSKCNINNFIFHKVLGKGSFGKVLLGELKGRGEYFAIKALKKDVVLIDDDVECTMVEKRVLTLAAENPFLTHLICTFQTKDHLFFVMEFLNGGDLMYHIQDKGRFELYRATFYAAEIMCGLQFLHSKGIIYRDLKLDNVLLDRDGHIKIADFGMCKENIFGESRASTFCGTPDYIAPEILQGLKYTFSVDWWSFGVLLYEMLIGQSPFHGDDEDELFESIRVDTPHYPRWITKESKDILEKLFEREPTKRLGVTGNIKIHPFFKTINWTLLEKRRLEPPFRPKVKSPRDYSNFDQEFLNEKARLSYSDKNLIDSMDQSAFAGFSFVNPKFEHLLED
Described as above. In kind it is binding. Conditions: 10 µM, read-out: score (%).

Experiment [7] has as its target T5, KinomeScan kinase panel (Homo sapiens, UniProt Q13554).
T5 construct: purchased DiscoveRx (KinomeScan)
Described as above. Particulars: CAMK2B, 10 µM; read-out: score (%). It is filed as binding.

Experiment [8] has as its target T6, KinomeScan kinase panel (Homo sapiens, UniProt Q14012).
T6 construct: purchased DiscoveRx (KinomeScan)
The description is as above. Particulars: CAMK1, 10 µM; read-out: score (%). In kind it is binding.

Experiment [9] addresses T7, KinomeScan kinase panel (Homo sapiens, UniProt Q14164).
T7 construct: purchased DiscoveRx (KinomeScan)
T7 sequence (Q14164 1-716): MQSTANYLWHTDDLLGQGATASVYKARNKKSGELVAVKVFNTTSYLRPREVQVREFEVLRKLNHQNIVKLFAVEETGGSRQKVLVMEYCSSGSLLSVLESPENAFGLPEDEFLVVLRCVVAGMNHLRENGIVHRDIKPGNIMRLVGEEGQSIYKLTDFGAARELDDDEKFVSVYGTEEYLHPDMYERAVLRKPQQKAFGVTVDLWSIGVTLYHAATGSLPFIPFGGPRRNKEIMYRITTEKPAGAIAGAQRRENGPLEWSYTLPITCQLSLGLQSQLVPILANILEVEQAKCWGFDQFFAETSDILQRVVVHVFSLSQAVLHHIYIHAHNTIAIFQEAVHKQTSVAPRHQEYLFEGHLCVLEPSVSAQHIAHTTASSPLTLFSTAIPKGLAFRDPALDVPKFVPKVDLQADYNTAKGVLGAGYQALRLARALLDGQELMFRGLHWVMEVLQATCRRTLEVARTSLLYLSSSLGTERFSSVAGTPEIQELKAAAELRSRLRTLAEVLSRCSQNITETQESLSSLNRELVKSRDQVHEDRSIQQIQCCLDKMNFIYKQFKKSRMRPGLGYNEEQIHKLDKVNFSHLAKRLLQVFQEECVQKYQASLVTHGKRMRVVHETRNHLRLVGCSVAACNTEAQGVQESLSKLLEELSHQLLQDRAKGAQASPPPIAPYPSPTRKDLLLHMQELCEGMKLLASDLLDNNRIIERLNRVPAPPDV
The description is as above. In kind it is binding. Conditions: IKK-epsilon, 10 µM; read-out: score (%).

Experiment [10] concerns the target T8, KinomeScan kinase panel (Homo sapiens, UniProt Q2M2I8).
T8 construct: purchased DiscoveRx (KinomeScan)
Described as above. It is filed as binding. Conditions: AAK1, 10 µM; read-out: score (%).

The target in experiment [11] is T9, KinomeScan kinase panel (Homo sapiens, UniProt Q6P3R8).
T9 construct: purchased DiscoveRx (KinomeScan)
T9 sequence (Q6P3R8 1-708): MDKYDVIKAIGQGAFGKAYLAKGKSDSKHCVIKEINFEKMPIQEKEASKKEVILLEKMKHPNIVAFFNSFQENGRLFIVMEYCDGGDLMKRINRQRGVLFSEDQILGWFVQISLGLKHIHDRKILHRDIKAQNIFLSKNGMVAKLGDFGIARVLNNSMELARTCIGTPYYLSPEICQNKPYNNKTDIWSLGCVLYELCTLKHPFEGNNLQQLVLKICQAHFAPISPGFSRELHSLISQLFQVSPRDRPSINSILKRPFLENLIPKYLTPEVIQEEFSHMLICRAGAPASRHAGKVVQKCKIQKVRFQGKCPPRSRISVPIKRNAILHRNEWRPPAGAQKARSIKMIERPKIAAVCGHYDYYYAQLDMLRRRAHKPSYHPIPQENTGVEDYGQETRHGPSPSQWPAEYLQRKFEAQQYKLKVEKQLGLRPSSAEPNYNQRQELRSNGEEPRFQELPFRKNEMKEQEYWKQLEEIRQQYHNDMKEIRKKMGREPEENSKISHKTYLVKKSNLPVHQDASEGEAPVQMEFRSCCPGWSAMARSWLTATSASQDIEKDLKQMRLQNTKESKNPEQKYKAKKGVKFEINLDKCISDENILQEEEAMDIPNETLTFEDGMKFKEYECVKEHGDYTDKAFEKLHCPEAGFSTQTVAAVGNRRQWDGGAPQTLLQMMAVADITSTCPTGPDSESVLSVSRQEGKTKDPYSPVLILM
Described as above. In kind it is binding. Conditions: NEK5, 10 µM; read-out: score (%).

The target in experiment [12] is T10, KinomeScan kinase panel (Homo sapiens, UniProt Q9BVS4).
T10 construct: purchased DiscoveRx (KinomeScan)
T10 sequence (Q9BVS4 whole entry): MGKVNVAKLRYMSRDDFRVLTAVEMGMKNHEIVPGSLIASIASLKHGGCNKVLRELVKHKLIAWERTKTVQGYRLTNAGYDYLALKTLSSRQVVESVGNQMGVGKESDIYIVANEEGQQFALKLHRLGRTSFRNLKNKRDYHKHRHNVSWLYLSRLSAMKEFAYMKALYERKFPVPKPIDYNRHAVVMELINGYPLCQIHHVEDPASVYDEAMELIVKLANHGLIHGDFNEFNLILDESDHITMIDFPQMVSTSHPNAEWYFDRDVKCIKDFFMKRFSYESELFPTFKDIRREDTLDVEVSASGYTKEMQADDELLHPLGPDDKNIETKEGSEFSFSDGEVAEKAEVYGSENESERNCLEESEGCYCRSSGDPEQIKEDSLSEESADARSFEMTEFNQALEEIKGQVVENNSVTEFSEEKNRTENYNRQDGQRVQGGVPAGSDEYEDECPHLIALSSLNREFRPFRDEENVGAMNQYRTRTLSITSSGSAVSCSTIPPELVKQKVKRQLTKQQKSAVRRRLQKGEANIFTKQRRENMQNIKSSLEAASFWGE
Described as above. It is filed as binding. Particulars: read-out: score (%).

Results on 3 molecules are retold here after paper PMC4457528, “Identification of Novel Small Molecule Inhibitors of Oncogenic RET Kinase” (PLoS ONE, 2015).

Each structure is given as a SMILES string. Like-named read-outs stand apart in the source and are kept apart here.

T1 sequence (P19784 whole entry): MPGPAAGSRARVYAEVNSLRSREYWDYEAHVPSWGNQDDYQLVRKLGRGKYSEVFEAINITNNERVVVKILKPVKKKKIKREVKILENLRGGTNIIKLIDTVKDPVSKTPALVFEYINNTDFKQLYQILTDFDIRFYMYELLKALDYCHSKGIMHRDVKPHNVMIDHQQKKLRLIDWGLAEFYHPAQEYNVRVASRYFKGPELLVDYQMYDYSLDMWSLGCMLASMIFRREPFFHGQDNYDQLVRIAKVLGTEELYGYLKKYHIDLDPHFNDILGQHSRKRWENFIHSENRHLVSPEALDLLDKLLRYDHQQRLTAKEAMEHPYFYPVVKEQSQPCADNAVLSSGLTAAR
T8 sequence (Q2M2I8 whole entry): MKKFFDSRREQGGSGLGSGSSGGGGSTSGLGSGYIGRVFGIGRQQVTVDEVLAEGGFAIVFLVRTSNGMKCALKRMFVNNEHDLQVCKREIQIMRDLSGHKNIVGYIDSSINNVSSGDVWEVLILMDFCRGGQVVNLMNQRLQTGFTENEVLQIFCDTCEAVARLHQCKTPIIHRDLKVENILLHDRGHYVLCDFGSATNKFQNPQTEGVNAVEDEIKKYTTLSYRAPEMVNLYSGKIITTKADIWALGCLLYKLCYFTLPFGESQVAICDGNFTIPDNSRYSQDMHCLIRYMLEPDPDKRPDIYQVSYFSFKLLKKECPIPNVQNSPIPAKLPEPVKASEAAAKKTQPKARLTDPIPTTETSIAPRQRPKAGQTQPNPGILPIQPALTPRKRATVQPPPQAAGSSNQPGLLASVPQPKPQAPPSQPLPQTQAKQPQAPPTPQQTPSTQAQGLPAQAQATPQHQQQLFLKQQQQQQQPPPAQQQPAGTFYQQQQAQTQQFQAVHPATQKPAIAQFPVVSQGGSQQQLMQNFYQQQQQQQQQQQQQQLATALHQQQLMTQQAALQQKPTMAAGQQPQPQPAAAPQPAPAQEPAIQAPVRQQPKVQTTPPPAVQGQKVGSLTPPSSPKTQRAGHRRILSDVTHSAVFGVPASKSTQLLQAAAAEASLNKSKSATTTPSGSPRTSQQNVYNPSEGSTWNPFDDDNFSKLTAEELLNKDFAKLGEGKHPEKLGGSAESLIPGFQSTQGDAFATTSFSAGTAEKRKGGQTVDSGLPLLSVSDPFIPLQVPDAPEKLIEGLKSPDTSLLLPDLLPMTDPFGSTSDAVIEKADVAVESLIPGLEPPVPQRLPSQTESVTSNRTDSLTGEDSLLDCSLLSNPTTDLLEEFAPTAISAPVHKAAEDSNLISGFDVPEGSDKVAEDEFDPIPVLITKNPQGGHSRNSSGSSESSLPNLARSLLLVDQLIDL
T5 sequence (Q13554 whole entry): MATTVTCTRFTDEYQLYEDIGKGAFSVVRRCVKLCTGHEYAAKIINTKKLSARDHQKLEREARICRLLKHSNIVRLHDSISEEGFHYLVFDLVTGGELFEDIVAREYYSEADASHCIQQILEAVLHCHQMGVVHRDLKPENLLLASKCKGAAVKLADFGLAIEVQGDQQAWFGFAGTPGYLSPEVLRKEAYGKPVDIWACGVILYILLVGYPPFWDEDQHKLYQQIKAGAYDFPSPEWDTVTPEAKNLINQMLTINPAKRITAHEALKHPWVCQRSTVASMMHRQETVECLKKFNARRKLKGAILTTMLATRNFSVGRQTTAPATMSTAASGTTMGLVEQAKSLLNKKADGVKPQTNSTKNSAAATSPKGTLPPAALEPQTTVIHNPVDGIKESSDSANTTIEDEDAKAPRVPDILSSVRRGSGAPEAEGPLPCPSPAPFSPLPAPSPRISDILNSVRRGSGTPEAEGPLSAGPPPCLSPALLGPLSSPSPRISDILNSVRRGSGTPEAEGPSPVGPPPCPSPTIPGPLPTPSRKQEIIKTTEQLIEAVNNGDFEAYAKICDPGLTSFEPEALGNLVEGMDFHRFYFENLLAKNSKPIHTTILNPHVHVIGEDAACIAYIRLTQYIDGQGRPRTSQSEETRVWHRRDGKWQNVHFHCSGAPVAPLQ
T6 sequence (Q14012 whole entry): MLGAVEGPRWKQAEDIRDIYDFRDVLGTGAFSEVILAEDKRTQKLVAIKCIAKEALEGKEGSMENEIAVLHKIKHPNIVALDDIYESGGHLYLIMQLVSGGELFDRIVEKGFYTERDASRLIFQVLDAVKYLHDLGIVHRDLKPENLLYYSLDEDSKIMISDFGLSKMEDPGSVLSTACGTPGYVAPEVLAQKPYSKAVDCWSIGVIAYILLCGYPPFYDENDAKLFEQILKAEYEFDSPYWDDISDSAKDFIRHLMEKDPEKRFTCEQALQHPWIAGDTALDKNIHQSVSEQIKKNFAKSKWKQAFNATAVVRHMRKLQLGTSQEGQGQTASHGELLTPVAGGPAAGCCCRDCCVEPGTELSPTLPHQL
T2 sequence (P49760 whole entry): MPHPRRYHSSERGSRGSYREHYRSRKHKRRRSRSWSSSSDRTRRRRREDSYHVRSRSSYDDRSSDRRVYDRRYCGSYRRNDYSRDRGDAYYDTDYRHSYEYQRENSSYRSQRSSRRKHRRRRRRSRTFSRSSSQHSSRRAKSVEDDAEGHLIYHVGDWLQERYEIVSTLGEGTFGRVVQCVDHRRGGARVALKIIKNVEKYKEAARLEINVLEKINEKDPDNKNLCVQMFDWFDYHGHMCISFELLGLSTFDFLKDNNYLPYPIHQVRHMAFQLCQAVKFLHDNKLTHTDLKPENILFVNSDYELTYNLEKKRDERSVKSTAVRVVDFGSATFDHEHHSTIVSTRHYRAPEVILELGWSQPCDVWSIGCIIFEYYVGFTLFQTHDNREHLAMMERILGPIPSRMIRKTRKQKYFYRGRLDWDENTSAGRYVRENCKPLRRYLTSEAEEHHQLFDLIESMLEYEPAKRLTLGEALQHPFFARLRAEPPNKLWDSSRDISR

For the molecule `CCN1CCN(Cc2ccc(NC(=O)c3ccc(C)c(NC(=O)c4cncc(-c5cccs5)c4)c3)cc2C(F)(F)F)CC1` [ALW-II-41-27], the IC50 in experiment [1] was found to be 44 nM; in experiment [2], 56 nM. Moreover, the remaining binding at 10 µM was above 30% in experiment [3]; 2.4% in experiment [4]; above 30% in experiment [5]; 1.2% in experiment [6] (PRKCD); above 30% in experiment [7]; above 30% in experiment [8]. Besides, the remaining binding at 10 µM in experiment [9] is above 30%; in experiment [10], above 30%; in experiment [11], above 30%; in experiment [12] (RIOK2, 10 µM) it was above 30%.
Turning to `CCN1CCN(Cc2ccc(NC(=O)c3ccc(C)c(/C=C/c4cnc5[nH]ccc5c4Cl)c3)cc2C(F)(F)F)CC1` [HG-6-63-01, (E)-3-(2-(4-chloro-1H-pyrrolo[2,3-b]pyridin-5-yl)vinyl)-N-(4-((4-ethylpiperazin-1-yl)methyl)-3-(trifluoromethyl)phenyl)-4-methylbenzamide], the IC50 in [1] was found to be 21 nM; in experiment [2] it was 16 nM. Besides, the remaining binding at 10 µM in experiment [3], in experiment [4], in experiment [5], in [6] (PRKCD), in experiment [7] and in [8] was above 30% in each case. The remaining binding at 10 µM is above 30% in [9]; 27% in experiment [10]; 7% in [11]; 33% in experiment [12] (RIOK2, 10 µM).
In the case of `CCN1CCN(Cc2ccc(NC(=O)c3ccc(C)c(C#Cc4cccnc4)c3)cc2C(F)(F)F)CC1` [XMD15-44], the results for the IC50 in experiment [1] and in experiment [2] were 11.5 nM and 8.3 nM, respectively. The remaining binding at 10 µM in experiment [3] is above 30%; in [4] it was above 30%; in [5], above 30%; in [6] (kinase PRKCD), 39%; in [7], above 30%; in experiment [8], above 30%. In addition, the remaining binding at 10 µM was above 30% in experiment [9]; above 30% in experiment [10]; 4.8% in experiment [11]; 0.5% in [12] (kinase RIOK2, 10 µM).
